Patent US9507284B2, “Electrophotographic photoreceptor, electrophotographic photoreceptor cartridge, image-forming apparatus, and triarylamine compound” (MITSUBISHI CHEMICAL CORPORATION, priority 2012, dated 2016)

Test: Storage Stability Test (coating fluid)
Type: physicochemical
Parameters: key: Excellent: Turbidity or the like derived from crystal precipitation is not present even after storage of coating fluid; Bad: Turbidity or the like derived from precipitation of the charge transport substance is present after storage of coating fluid
Settings: charge transport layer coating fluid (60 parts substance, 100 parts polycarbonate PD, tetrahydrofuran/toluene 8/2) stored at −5 to 0° C. for 2 months, checked for turbidity
Procedure: As the binder resin, the polycarbonate resin (Mv=39,200) having a repeating unit represented by the structural formula (PD) was used. Then, 60 parts by mass of the charge transport substance, 100 parts by mass of the binder resin, 2 parts by mass of an antioxidant having a structure represented by the following formula (AOX2), and 0.05 parts by mass of a silicone oil as a leveling agent were dissolved in 540 parts by mass of a mixed solvent of tetrahydrofuran/toluene (mass ratio: 8/2) to prepare a charge transport layer coating fluid for coating fluid storage stability test.
The coating fluid obtained was placed in a glass sealed bottle and stored under the condition of −5 to 0° C. for 2 months. Then, it was checked whether turbidity or the like occurred or not in the coating fluid after storage, thereby evaluating the coating fluid storage stability.
The charge transport substances used in evaluation, the results of stability evaluation, and the criteria for the coating fluid stability are shown in the following Table-6.

Storage stability	Compound
Excellent	CCOc1ccc(N(c2ccc(/C=C/c3ccc(N(c4ccc(C)cc4)c4ccc(C)cc4)cc3)cc2)c2ccc(/C=C/c3ccc(N(c4ccc(C)cc4)c4ccc(C)cc4)cc3)cc2)cc1 [CTM1]
Bad	Cc1ccc(N(c2ccc(C)cc2)c2ccc(/C=C/c3ccc(N(c4ccc(C)cc4)c4ccc(/C=C/c5ccc(N(c6ccc(C)cc6)c6ccc(C)cc6)cc5)cc4)cc3)cc2)cc1 [RCTM1]
